Where two headings read alike, the source gives them in different places.
Target: T1, His-PKC-theta (Homo sapiens, UniProt Q04759)
T1 construct: His; purchased Invitrogen
Assay: PKC-theta Assay (384-well time resolved fluorescence, IMAP TR-FRET)
Assay type: biochemical
Details: read-out: Act. Level (IC50 in the PKC-theta Assay)
Protocol: PKC-theta Assay. A 384-well time resolved fluorescence assay was used to monitor PKC-theta activity. The PKC-theta assay was run in the following assay buffer: 50 mM HEPES pH 7.6, 10 mM MgCl2, 1 mM DTT, 0.01% Triton X-100, 0.01% BSA and 0.1 mM EDTA. To initiate the reaction, 200 nM of Fam-labeled S6-derived peptide (Molecular Devices) and 10 μM of ATP were mixed with 142 pM of His-PKC-theta (Invitrogen) for a total assay volume of 25 μL in each well. The assay was incubated at room temperature for 2 hours and terminated using a 60 μL/well mixture of Detection Binding Solution: 70% IMAP Progressive Binding Buffer A, 30% IMAP Progressive Binding Buffer B, 1:600 Progressive Binding Reagent, and 1:400 TR-FRET Tb Donor (Molecular Devices). The assay plates were then incubated overnight at room temperature and read on a Perkin-Elmer Envision Reader.

T1 sequence (Q04759 whole entry): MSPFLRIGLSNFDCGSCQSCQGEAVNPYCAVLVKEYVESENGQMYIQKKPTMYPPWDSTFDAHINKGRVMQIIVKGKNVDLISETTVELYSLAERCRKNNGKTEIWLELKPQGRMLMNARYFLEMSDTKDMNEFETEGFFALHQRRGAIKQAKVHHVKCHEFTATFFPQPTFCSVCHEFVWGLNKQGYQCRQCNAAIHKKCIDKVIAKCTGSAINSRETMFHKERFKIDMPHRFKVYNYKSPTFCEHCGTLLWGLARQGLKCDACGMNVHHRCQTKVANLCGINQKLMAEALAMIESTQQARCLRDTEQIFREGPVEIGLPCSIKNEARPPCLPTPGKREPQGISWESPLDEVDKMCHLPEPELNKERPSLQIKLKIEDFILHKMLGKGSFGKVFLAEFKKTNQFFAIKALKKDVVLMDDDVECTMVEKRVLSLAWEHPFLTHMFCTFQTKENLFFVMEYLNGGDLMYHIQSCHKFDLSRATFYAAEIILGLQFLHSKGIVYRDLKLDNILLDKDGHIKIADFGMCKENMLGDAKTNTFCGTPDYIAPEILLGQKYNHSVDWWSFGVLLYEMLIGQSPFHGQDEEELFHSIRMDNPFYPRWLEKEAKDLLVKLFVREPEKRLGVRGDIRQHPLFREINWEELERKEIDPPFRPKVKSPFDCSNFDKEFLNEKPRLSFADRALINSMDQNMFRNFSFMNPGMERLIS

| IC50 (Table 2) [nM] | IC50 [nM] | SMILES |
| --- | --- | --- |
| 100 to 800 | – | CC1(C)C[C@H](Nc2nc(NCCc3ccc(S(=O)(=O)N4CCCCC4)cc3)ncc2C#N)CC[C@@H]1O [Cmpd 178] |
| – | < 100 | CC1(C)C[C@H](Nc2nc(NCCc3c[nH]c4c(F)cccc34)ncc2C#N)CC[C@@H]1O [Cmpd 182] |
| 100 to 800 | – | CC1(C)C[C@H](Nc2nc(NCCc3ccc(OC(F)(F)F)cc3)ncc2C#N)CC[C@@H]1O [Cmpd 53] |
| – | 2000 to 10000 | Cc1ccnn1CCNc1ncc(C#N)c(N[C@@H]2CC[C@H](O)C(C)(C)C2)n1 [Cmpd 193] |
| – | 100 to 800 | CC1(C)[C@H](O)C[C@@H]1Nc1nc(NCc2cncnc2-c2ccc(F)cc2)ncc1C#N [Cmpd 133] |
| – | < 100 | O[C@H]1CC[C@@H](Nc2nc(NCc3cnccc3C(F)(F)F)ncc2C(F)(F)F)CC1 [Cmpd 69] |
| 2000 to 10000 | – | Cc1nnnn1-c1ccccc1CNc1ncc(C(F)(F)F)c(N[C@H]2CC[C@@H](O)C(C)(C)C2)n1 [Cmpd 24] |
| 100 to 800 | – | CC(C)(O)CNc1nc(NCc2cnccc2C(F)(F)F)ncc1C#N [Cmpd 6] |
| 100 to 800 | – | CC1(C)[C@@H](O)C[C@H]1Nc1nc(NCCc2ccc(Oc3ccccc3)cc2)ncc1C#N [Cmpd 119] |
| – | 800 to 2000 | Cc1ccc(CCNc2ncc(C#N)c(N[C@@H]3CC[C@H](O)C(C)(C)C3)n2)cn1 [Cmpd 197] |
| – | < 100 | CCOc1ncncc1CNc1ncc(C#N)c(N[C@@H]2CC[C@H](O)C(C)(C)C2)n1 [Cmpd 37] |
| 100 to 800 | – | COc1cc(CCNc2ncc(C#N)c(N[C@@H]3CC[C@H](O)C(C)(C)C3)n2)ccc1C#N [Cmpd 137] |
| 800 to 2000 | – | CC1(C)[C@@H](O)C[C@H]1Nc1nc(NCCc2ccc(OC3CCCC3)cc2)ncc1C#N [Cmpd 118] |
| – | 2000 to 10000 | N#Cc1cnc(NCCc2ncccc2C(F)(F)F)nc1N[C@H]1CC[C@@H](O)CC1 [Cmpd 151] |
| 100 to 800 | – | CC1(C)[C@@H](O)C[C@H]1Nc1nc(NCCc2ccccc2OC(F)F)ncc1C#N [Cmpd 136] |
| 800 to 2000 | – | CC1(C)C[C@H](Nc2nc(NCCc3cccc(-c4ccccc4)c3)ncc2C#N)CC[C@@H]1O [Cmpd 58] |
| 800 to 2000 | – | CC1(C)C[C@H](O)CC[C@@H]1Nc1nc(NCCc2cccc(Cl)c2)ncc1C#N [Cmpd 189] |
| – | < 100 | CNC(=O)[C@H]1CC[C@@H](Nc2nc(NCc3cncnc3Oc3cccc(C)c3)ncc2C#N)CC1 [Cmpd 22] |
| 100 to 800 | – | CC1(C)C[C@H](Nc2nc(NCCc3ccc(S(=O)(=O)C(F)(F)F)cc3)ncc2C#N)CC[C@@H]1O [Cmpd 185] |
| 800 to 2000 | – | CC1(C)[C@@H](O)C[C@H]1Nc1nc(NCCc2ccc(C#N)c(OC(F)(F)F)c2)ncc1C#N [Cmpd 143] |
| < 100 | – | CC1(C)C[C@H](Nc2nc(NCCc3ccccc3)ncc2C#N)CC[C@@H]1O [Cmpd 150] |
| < 100 | – | CC1(C)C[C@H](Nc2nc(NCCc3cc(Cl)ccc3F)ncc2C#N)CC[C@@H]1O [Cmpd 89] |
| – | 100 to 800 | Cc1[nH]c2ccccc2c1CCNc1ncc(C#N)c(N[C@@H]2CC[C@H](O)C(C)(C)C2)n1 [Cmpd 168] |

| IC50 (Table 2) [nM] | IC50 [nM] | SMILES |
| --- | --- | --- |
| – | < 100 | Cc1ccc(Oc2ncncc2CNc2ncc(C(F)(F)F)c(N[C@H]3CC[C@@H](O)CC3)n2)cc1 [Cmpd 19] |
| – | < 100 | CC(F)(F)c1ncncc1CNc1ncc(C#N)c(N[C@@H]2CC[C@H](O)C(C)(C)C2)n1 [Cmpd 36] |
| – | 800 to 2000 | Cc1cc(C(F)(F)F)c(CNc2ncc(C#N)c(N[C@H]3CC[C@@](C)(O)CC3)n2)c[n+]1[O-] [Cmpd 146] |
| – | 100 to 800 | Cc1ccc(CCNc2ncc(C#N)c(N[C@@H]3CC[C@H](O)C(C)(C)C3)n2)o1 [Cmpd 192] |
| 800 to 2000 | – | CC1(C)C[C@H](Nc2nc(NCCc3ccc(C(=O)O)cc3)ncc2C#N)CC[C@@H]1O [Cmpd 153] |
| – | 100 to 800 | CC1(C)[C@@H](Nc2nc(NCc3cncnc3-c3ccc(F)cc3)ncc2C#N)C[C@@H]1O [Cmpd 111] |
| – | < 100 | CCc1ncncc1CNc1ncc(C#N)c(NC2CC(C)(O)C2(C)C)n1 (stereo not shown) [Cmpd 65] |
| < 100 | – | N#Cc1cnc(NCc2cc(F)ccc2C(F)(F)F)nc1N[C@H]1CC[C@@H](O)CC1 [Cmpd 3] |
| – | < 100 | O[C@H]1CC[C@@H](Nc2nc(NCc3cncnc3-c3ccccc3)ncc2C(F)(F)F)CC1 [Cmpd 76] |
| 800 to 2000 | – | N#Cc1cnc(NCCc2cccc(Cl)c2)nc1N[C@H]1CC[C@H](O)CC1 [Cmpd 69] |
| 100 to 800 | – | CN(C)c1ccc(CCNc2ncc(C#N)c(N[C@@H]3CC[C@H](O)C(C)(C)C3)n2)cc1 [Cmpd 129] |
| 100 to 800 | – | CC1(C)[C@@H](Nc2nc(NCCc3cccc(Cl)c3)ncc2C#N)C[C@H]1C(N)=O [Cmpd 164] |
| – | 100 to 800 | CC1(C)C[C@H](Nc2nc(NCCc3c[nH]c4cc(OC(F)(F)F)ccc34)ncc2C#N)CC[C@@H]1O [Cmpd 170] |
| 100 to 800 | – | CC(F)(F)COc1cccc(CCNc2ncc(C#N)c(N[C@@H]3CC[C@H](O)C(C)(C)C3)n2)c1 [Cmpd 155] |
| – | < 100 | C[C@]1(O)CC[C@@H](Nc2nc(NCc3cncnc3-c3ccccc3)ncc2C(F)(F)F)CC1 [Cmpd 80] |
| – | < 100 | CC1(C)[C@@H](O)C[C@H]1Nc1nc(NCc2c[n+]([O-])ccc2C(F)(F)F)ncc1C(F)(F)F [Cmpd 41] |
| – | 100 to 800 | O[C@H]1C[C@H](Nc2nc(NCc3cnccc3C(F)(F)F)ncc2C(F)(F)F)C1 [Cmpd 94] |
| 100 to 800 | – | COc1ccc(CCNc2ncc(C#N)c(N[C@@H]3CC[C@H](O)C(C)(C)C3)n2)cc1OC [Cmpd 36] |
| – | < 100 | N#Cc1cnc(NCc2cnccc2C(F)(F)F)nc1N[C@H]1CC[C@@H](O)CC1 [Cmpd 75] |
| – | < 100 | CC(F)(F)COc1ncncc1CNc1ncc(C#N)c(NC2C[C@@H](O)C2(C)C)n1 (stereo partly shown) [Cmpd 88] |
| 800 to 2000 | – | CC1(C)C[C@H](Nc2nc(NCCc3cccc(C#N)c3)ncc2C#N)CC[C@@H]1O [Cmpd 166] |
| – | < 100 | Cc1ccc(Oc2ncncc2CNc2ncc(C(F)(F)F)c(N[C@H]3CC[C@@](C)(O)CC3)n2)cc1 [Cmpd 31] |
| < 100 | – | CC1(C)[C@H](CO)C[C@H]1Nc1nc(NCCc2cccc(Cl)c2)ncc1C#N [Cmpd 76] |

| IC50 (Table 2) [nM] | IC50 [nM] | SMILES |
| --- | --- | --- |
| 800 to 2000 | – | CC1(C)[C@H](CO)C[C@@H]1Nc1nc(NCCc2cccc(Cl)c2)ncc1C#N [Cmpd 75] |
| – | 2000 to 10000 | Cc1cc(C)n(CCNc2ncc(C#N)c(N[C@@H]3CC[C@H](O)C(C)(C)C3)n2)n1 [Cmpd 198] |
| 100 to 800 | – | CC1(C)C[C@H](Nc2nc(NCCc3ccccc3OC(F)F)ncc2C#N)CC[C@@H]1O [Cmpd 132] |
| – | < 100 | CC(C)c1ncncc1CNc1ncc(C(F)(F)F)c(N[C@@H]2C[C@H](O)C2(C)C)n1 [Cmpd 20] |
| – | 100 to 800 | CC(F)(F)COc1ncncc1CNc1ncc(C#N)c(N[C@H]2C[C@H](O)C2(C)C)n1 [Cmpd 121] |
| 800 to 2000 | – | CC1(C)[C@@H](O)C[C@H]1Nc1nc(NCCc2ccc(C(F)(F)F)cc2)ncc1C#N [Cmpd 46] |
| – | < 100 | CC1(C)[C@H](CO)C[C@H]1Nc1nc(NCc2cnccc2C(F)(F)F)ncc1C#N [Cmpd 51] |
| – | 100 to 800 | CC1(C)[C@H](O)C[C@@H]1Nc1nc(NCc2cncnc2-c2ccc(F)cc2)ncc1C(F)(F)F [Cmpd 97] |
| – | 2000 to 10000 | Cc1nc(CCNc2ncc(C#N)c(N[C@@H]3CC[C@H](O)C(C)(C)C3)n2)no1 [Cmpd 195] |
| – | < 100 | CC1(C)[C@@H](O)C[C@H]1Nc1nc(NCc2cncnc2-c2ccc(F)cc2)ncc1C(F)(F)F [Cmpd 70] |
| 800 to 2000 | – | CC(F)(F)COc1ccccc1CCNc1ncc(C#N)c(N[C@@H]2CC[C@H](O)C(C)(C)C2)n1 [Cmpd 152] |
| – | 100 to 800 | Cc1cccc2c(CCNc3ncc(C#N)c(N[C@@H]4CC[C@H](O)C(C)(C)C4)n3)c[nH]c12 [Cmpd 172] |
| – | 100 to 800 | N#Cc1cnc(NCc2cncnc2C(F)(F)F)nc1N[C@H]1CC[C@@H](O)CC1 [Cmpd 96] |
| 100 to 800 | – | CC1(C)C[C@H](Nc2nc(NCCc3ccc(C(F)(F)F)cc3)ncc2C#N)CC[C@@H]1O [Cmpd 99] |
| 100 to 800 | – | CC1(C)[C@@H](O)C[C@H]1Nc1nc(NCCc2ccc(Cl)c(Cl)c2)ncc1C#N [Cmpd 107] |
| 100 to 800 | – | CC1(C)C[C@H](Nc2nc(NCCc3cccc(S(N)(=O)=O)c3)ncc2C#N)CC[C@@H]1O [Cmpd 172] |
| – | < 100 | CC1(C)C[C@H](Nc2nc(NCc3c[n+]([O-])ccc3C(F)(F)F)ncc2C#N)CC[C@@H]1O [Cmpd 42] |
| 800 to 2000 | – | CC1(C)C[C@H](Nc2nc(NCCc3cc(C(F)(F)F)cc(C(F)(F)F)c3)ncc2C#N)CC[C@@H]1O [Cmpd 54] |
| – | < 100 | Cc1ccc(Oc2ncncc2CNc2ncc(C#N)c(N[C@H]3CC[C@@](C)(O)CC3)n2)cc1 [Cmpd 28] |
| < 100 | – | CC1(C)C[C@H](Nc2nc(NCCc3ccc(F)c(Cl)c3)ncc2C#N)CC[C@@H]1O [Cmpd 88] |
| 100 to 800 | – | CC1(C)C[C@H](Nc2nc(NCCc3ccc(C#N)cc3)ncc2C#N)CC[C@@H]1O [Cmpd 37] |
